In turn, `COc1ccc(Oc2cc(-n3c(=O)cc(C(F)(F)F)n(C)c3=O)c(F)cc2C#N)cc1` [Example 2, 4-(3,6-dihydro-2,6-dioxo-3-methyl-4-trifluoro-methyl-1(2H)-pyrimidin-1-yl)-5-fluoro-2-(4-methoxy-phenoxy)-benzonitrile] had a melting point of 62 °C.
As to `COc1ccc(Oc2cc(-n3c(=O)cc(C(F)(F)F)[nH]c3=O)c(F)cc2C#N)cc1` [Example 1, 4-(3,6-dihydro-2,6-dioxo-4-trifluoromethyl-1(2H)-pyrimidin-1-yl)-5-fluoro-2-(4-methoxy-phenoxy)-benzonitrile], the melting point is 84 °C.

Usually melting point stands for the temperature of the solid-liquid transition.
